# Experimental data as given in patent publication US6136992A, “2-alkoxy estradiols and derivatives thereof” (The United States of America as represented by the …, priority 1998, dated 2000).
# Like-named read-outs stand apart in the source and are kept apart here.
# What was measured:
# LOX IMVI = test: NCI screen, melanoma; assay type: cell-based; settings: Homo sapiens, read-out: Log10 GI50, LOX IMVI (converted)
# HS 578T = test: NCI screen, breast cancer; assay type: cell-based; settings: Homo sapiens, read-out: Log10 GI50, HS 578T (converted)
# NCIH-522 = test: NCI screen, non-small cell lung cancer; assay type: cell-based; settings: Homo sapiens, NCI-H522, read-out: Log10 GI50, NCIH-522 (converted)
# M14 = test: NCI screen, melanoma; assay type: cell-based; settings: Homo sapiens, read-out: Log10 GI50, M14 (converted)
# SK-MEL-5 = test: NCI screen, melanoma; assay type: cell-based; settings: Homo sapiens, read-out: Log10 GI50, SK-MEL-5 (converted)
# K562 = test: NCI screen, leukemia; assay type: cell-based; settings: Homo sapiens, read-out: Log10 GI50, K562 (converted)
# SF-295 = test: NCI screen, CNS cancer; assay type: cell-based; settings: Homo sapiens, read-out: Log10 GI50, SF-295 (converted)
# MOLT-4 = test: NCI screen, leukemia; assay type: cell-based; settings: Homo sapiens, read-out: Log10 GI50, MOLT-4 (converted)
# MCF7/ADR-RES = test: NCI screen, breast cancer; assay type: cell-based; settings: Homo sapiens, read-out: Log10 GI50, MCF7/ADR-RES (converted)
# OVCAR-3 = test: NCI screen, ovarian cancer; assay type: cell-based; settings: Homo sapiens, read-out: Log10 GI50, OVCAR-3 (converted)
# [1] = system: HCT-116 colon cancer cells; test: NCI in vitro anticancer screen, HCT-116 colon cancer; assay type: cell-based; settings: Homo sapiens
# Description: (§1) The effects of the analogs on cancer cell growth was investigated in the National Cancer Institute (NCI) Developmental Therapeutics Program's in vitro panel of approximately 55 cell lines (Grever et al., Seminars in Oncology 19:622 (1992), Alley et al., Cancer Research 48:589 (1988) and Montes et al., J. National Cancer Institute 83:757 (1991)). Representative results are listed in Table 1 for HOP-62 non-small-cell lung cancer cells, HCT-116 colon cancer cells, SF-539 central nervous system (CNS) cancer cells, UACC-62 melanoma cells, OVCAR ovarian cancer cells, SN12-C renal cancer cells, DU-145 prostate cancer cells, and MDA-MB-435 breast cancer cells.
# (§2) ^a The cytotoxicity GI50 values are the concentrations
# estrogen receptor = molecular target: T1, estrogen receptor (Rattus norvegicus, UniProt P06211); test: Estrogen binding affinity assay (comparative radiometric binding, rat uterine cytosol)
# T1 construct: from tissue; host or cells: rat uterine cytosol
# T1 sequence (P06211 1-600): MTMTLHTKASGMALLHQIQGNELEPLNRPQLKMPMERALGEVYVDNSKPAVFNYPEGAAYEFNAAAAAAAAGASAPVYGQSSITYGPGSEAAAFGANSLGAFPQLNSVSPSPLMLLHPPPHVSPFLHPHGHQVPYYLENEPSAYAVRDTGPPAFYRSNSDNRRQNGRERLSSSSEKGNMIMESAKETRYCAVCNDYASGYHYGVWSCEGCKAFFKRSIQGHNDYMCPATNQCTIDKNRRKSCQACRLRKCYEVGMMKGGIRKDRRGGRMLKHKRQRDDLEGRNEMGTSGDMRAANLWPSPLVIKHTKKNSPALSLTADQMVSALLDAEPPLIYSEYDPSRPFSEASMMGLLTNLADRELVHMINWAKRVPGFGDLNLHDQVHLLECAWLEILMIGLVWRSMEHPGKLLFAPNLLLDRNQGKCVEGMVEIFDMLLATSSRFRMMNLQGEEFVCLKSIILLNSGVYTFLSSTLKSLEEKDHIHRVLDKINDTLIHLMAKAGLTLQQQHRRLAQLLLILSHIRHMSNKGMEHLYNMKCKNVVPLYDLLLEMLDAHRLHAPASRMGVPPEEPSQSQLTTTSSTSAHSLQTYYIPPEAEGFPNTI
# Experimental: The assay of (11), (12) and (16) were conducted at 0° C. for 20 hours, while those for (1) and (2) were performed at 0° C. for 18 hours.
# NCI-H322M = test: NCI screen, non-small cell lung cancer; assay type: cell-based; settings: Homo sapiens, read-out: Log10 GI50, NCI-H322M (converted)
# NCI-H460 = test: NCI screen, non-small cell lung cancer; assay type: cell-based; settings: Homo sapiens, read-out: Log10 GI50, NCI-H460 (converted)
# [2] = system: OVCAR ovarian cancer cells; test: NCI in vitro anticancer screen, OVCAR ovarian cancer; assay type: cell-based; settings: Homo sapiens, read-out: cytotoxicity GI50, Ovarian OVCAR
# Description: as §1, §2
# OVCAR-8 = test: NCI screen, ovarian cancer; assay type: cell-based; settings: Homo sapiens, read-out: Log10 GI50, OVCAR-8 (converted)
# RPMI-8226 = test: NCI screen, leukemia; assay type: cell-based; settings: Homo sapiens, read-out: Log10 GI50, RPMI-8226 (converted)
# MDA-N = test: NCI screen, breast cancer; assay type: cell-based; settings: Homo sapiens, read-out: Log10 GI50, MDA-N (converted)
# EKVX = test: NCI screen, non-small cell lung cancer; assay type: cell-based; settings: Homo sapiens, read-out: Log10 GI50, EKVX (converted)
# UO-31 = test: NCI screen, renal cancer; assay type: cell-based; settings: Homo sapiens, read-out: Log10 GI50, UO-31 (converted)
# tubulin = test: Inhibition of tubulin polymerization (turbidimetry at 350 nm); assay type: biochemical, bovine; settings: 26° C., 20 min; read-out: Inhibn of Tubulin Polymn IC50
# Experimental: Four instruments were used, and two control reaction mixtures were present in each experiment. […] IC50 values were determined graphically. […]
# Inhibition of tubulin polymerization was investigated using electrophoretically homogeneous tubulin from bovine brain.
# ACHN = test: NCI screen, renal cancer; assay type: cell-based; settings: Homo sapiens, read-out: Log10 GI50, ACHN (converted)
# BT-549 = test: NCI screen, breast cancer; assay type: cell-based; settings: Homo sapiens, read-out: Log10 GI50, BT-549 (converted)
structure (smiles),measurement,setting,value
"C[C@]12CC[C@@H]3c4cc(OCC(F)(F)F)c(O)cc4C(=NO)C[C@H]3[C@@H]1CC[C@@H]2O [Compound 12, 2-(2',2', 2'-Trifluoroethoxy)-6-Hydroximino-Estra-1,3,5(10)-Triene-3,17β-Diol]",GI50,LOX IMVI,< 10 nM
same,GI50,HS 578T,< 10 nM
same,GI50,NCIH-522,< 10 nM
same,GI50,M14,< 10 nM
same,GI50,SK-MEL-5,< 10 nM
same,GI50,K562,< 10 nM
same,GI50,SF-295,< 10 nM
same,GI50,MOLT-4,< 10 nM
same,GI50,MCF7/ADR-RES,< 10 nM
same,GI50,OVCAR-3,< 10 nM
same,GI50,"[1]; HCT-116, read-out: cytotoxicity GI50, Colon HCT-116",< 10 nM
same,GI50,"[1]; HCT-116, Colon Cancer, read-out: Log10 GI50, HCT-116 (converted)",< 10 nM
same,"affinity for the estrogen receptor, in words",estrogen receptor,very week affinity for the receptor
same,GI50,NCI-H322M,< 10 nM
same,GI50,NCI-H460,< 10 nM
same,GI50,[2],< 10 nM
same,GI50,OVCAR-8,< 10 nM
same,GI50,RPMI-8226,< 10 nM
same,GI50,MDA-N,< 10 nM
same,GI50,EKVX,< 10 nM
same,GI50,UO-31,< 10 nM
same,IC50,tubulin,500 nM
same,GI50,ACHN,< 10 nM
same,GI50,BT-549,< 10 nM
